Measured values: patent US9642851B2, “Indolinone derivative as tyrosine kinase inhibitor” (KBP Biosciences Co., Ltd., priority 2012, dated 2017)
Where a name gives a salt, the structure may show the parent alone.

Key:
[1] = target: T1, PDGFRβ (Homo sapiens, UniProt P09619); test: In vitro enzymology inhibitory activity (Caliper mobility shift kinase assay); type: biochemical; conditions: reaction 5 hour at 28° C., FAM-labelled peptide and ATP
T1 construct: purchased BPS
Procedure: (§1) • (1) Preparation of agents and compounds • (1) 1-fold kinase buffer without MnCl2 (50 mM HEPES, pH=7.5, 0.0015% Brij-35, 10 mM MgCl2, 2 mM DTT) • (2) 1-fold kinase buffer with MnCl2 (50 mM HEPES, pH=7.5, 0.0015% Brij-35, 10 mM MgCl2, 10 mM MnCl2, 2 mM DTT); • (3) Termination solution (100 mM HEPES, pH=7.5, 0.015% Brij-35, 0.2% Coating Reagent #3, 50 mM EDTA); • (4) 2.5-fold kinase solution (the VEGFR2, FGFR1, FGFR3, PDGFRβ kinases were added to the 1-fold kinase buffer respectively to prepare the corresponding 2.5-fold kinase solutions); • (5) 2.5-fold substrate solution: FAM-labelled peptide and ATP were added to the 1-fold kinase buffer to prepare a peptide solution; • (6) 4-fold dilution of the compound solution: the compound was accurately weighed, and dissolved in DMSO. The mixture was mixed sufficiently and evenly to prepare a 10 mM solution. Then the solution was diluted with DMSO to 500 μM, and 4-fold serial dilutions were done at 10 concentrations with a highest concentration of 50μM.
(§2) The calculated inhibition ratio (%)=(max. conversion−sample conversion)/(max. conversion−min. conversion)×100
(§3) The curve fitting was done with the software Xlfit to obtain the IC50 value.

[2] = target: T2, FGFR3 (Homo sapiens, UniProt P22607); test: as above; type: biochemical; conditions: reaction 1 hour at 28° C., FAM-labelled peptide and ATP
T2 construct: purchased Carna
Procedure: as §1, §2, §3

[3] = system: HUVEC cells; test: In vitro cellular inhibitory activity, h-VEGF-A stimulated HUVEC proliferation; type: cell-based; conditions: Homo sapiens, h-VEGF-A 10 ng/ml, incubated for 89 hours, absorbance at 490 nm, read-out: ED50 for the HUVEC in vitro cells
Procedure: (§4) (1) Thawing cells and Passing cells.
(§5) The 3T3 cells were resuspended in a culture medium containing 10% fetal bovine serum, wherein the cell concentration was 5×10^4/ml. The cell suspension was added to a 96-well plate with 100 μL per well, and incubated overnight; the HUVEC cells were resuspended in a culture medium containing 10% heat-inactivated fetal bovine serum, wherein the cell concentration was 7.5×10^4/ml. The cell suspension was added to a 96-well plate with 100 μL per well. • (3) Treating with drugs: the compounds were diluted to different concentrations, and 60 μLh-PDGF-BB (3T3 cells) and 40 ng/ml h-VEGF-A (HUVEC cells) were added and incubated for 1 hour. • (4) 100 μL of a solution containing the compound and h-PDGF-BB (h-VEGF-A, for the HUVEC cells) was added to a cell culture plate, wherein the final concentration of h-PDGF-BB was 10 ng/ml, the final concentration of h-VEGF-A was 10 ng/ml, and the final concentration for the compounds were 10, 3.3333, 1.1111, 0.3704, 0.1235, 0.0412, 0.0137, 0.0046, and 0.0015 μM. The plate was incubated for 40 hours, and the HUVEC cells were incubated for 89 hours. To each well was added 20 μL Promega Substrate, and the plate was incubated at 37° C. for 7.5 hours, and the HUVEC cells were incubated for 11.5 hours. Then the plate was placed in a microplate reader to read the absorbance at 490 nm. • (5) Data processing
(§6) The curve of the compound concentration vs. Net OD was plotted, wherein Net OD=Compound OD−min. OD. ED50 was calculated according to the following equation: Conc. ED50(x)=(y−b)/a, y=Calculated Net OD for IC50, a=slope, b=intercept.

[4] = system: 3T3 cells; test: In vitro cellular inhibitory activity, h-PDGF-BB stimulated 3T3 proliferation; type: cell-based; conditions: Mus musculus, NIH3T3; h-PDGF-BB 10 ng/ml, incubated for 40 hours, absorbance at 490 nm; read-out: ED50 for the 3T3 in vitro cells
Procedure: as §4, §5, §6

[5] = target: hERG potassium channel (Homo sapiens, UniProt Q12809); test: Inhibitory effect on hERG potassium channel with the patch clamp method
Procedure: 1. Preparations of the Solutions and the Compounds
Extracellular fluid (mM): N-2-hydroxyethylpiperazine-N′-2-ethanesulfonic acid (HEPES) 10, NaCl 145, KCl 4, CaCl2 2, MgCl2 1, Glucose 10, adjusted with 1N sodium hydroxide to pH=7.4; the osmotic pressure was adjusted to 290-300 mOsm; filtered and preserved at 4° C.
Intracellular solution (mM): KCl 120, KOH 31.25, CaCl2 5.374, MgCl2 1.75, Ethylene glycol-bis(β-aminoethyl ether)-N,N,N′,N′-tetraacetic acid (EGTA) 10, HEPES 10, Na2-ATP 4, adjusted with 1N potassium hydroxide to pH=7.2; the osmotic pressure was adjusted to 280-290 mOsm; filtered and preserved at −20° C.
Before the experiments, the above stock solutions were diluted with DMSO to the levels that were 333 or 1000 times higher than the experiment concentrations, and then diluted by 333 or 1000 folds with the extracellular fluid to the desired concentrations. The final concentration of DMSO in the extracellular fluid was 0.3% or 0.1%.
2. Electrophysiological experiment. The hERG current was recorded with whole cell patch clamp technique. A cell suspension was added to a 35 mm petri dish, and placed on the object stage of an inverted microscope. After the adherence of cells, the perfusion with the extracellular fluid was done in a perfusion rate of 1-2 ml/min. […] After establishing a whole-cell record, the holding potential was kept at −80 mV. In the voltage stimulation, the depolarization was made at the potential of +60 mV. Then, the repolarization was made at the potential of −50 mV and the hERG tail current was recorded. All of the recordings were conducted after the currents became stable. The extracellular perfusion administration started from the lower concentration, and the administration at each concentration was conducted for 5-10 mines until the current became stable and then the administration at the next concentration was conducted. 3. The Experiment Included the Following Aspects:
The hERG current was recoded on the CHO-K1 cell line stably expressing the hERG channel with the manual patch clamp technology; the inhibition ratio at each concentration was calculated according to the hERG tail current; each of the compounds was measured at five concentrations to deduce the IC50 value; two cells were measured at each concentration; and one positive control drug was used.
4. Data Collection and Processing
The stimulation and the signal collection were accomplished through A/D-D/A digital-analog conversions with Digidata 1440 (Molecular Devices) and pCLAMP software (Version 10.2, Molecular Devices); the signal was amplified with a patch clamp amplifier (Multiclamp 700B, Molecular Devices), and filtered at 1 KHz. The data were further analyzed and subjected to the curve fitting with Clampfit (Version 10.2, Molecular Devices) and Prism. The data were expressed as mean value±standard deviation. The IC50 value was obtained by the fitting based on the Logistic equation:
[formula] • y: the inhibitory percent; max: 100%; min: 0%; [drug]: the concentration of the tested substance; nH: the slope rate; IC50: the half maximal inhibitory concentration of the tested substance.

[6] = target: T3, FGFR1 (Homo sapiens, UniProt P11362); test: In vitro enzymology inhibitory activity (Caliper mobility shift kinase assay); type: biochemical; conditions: reaction 1 hour at 28° C., FAM-labelled peptide and ATP
T3 construct: purchased Carna
Procedure: as §1, §2, §3

T1 sequence (P09619 33-1106): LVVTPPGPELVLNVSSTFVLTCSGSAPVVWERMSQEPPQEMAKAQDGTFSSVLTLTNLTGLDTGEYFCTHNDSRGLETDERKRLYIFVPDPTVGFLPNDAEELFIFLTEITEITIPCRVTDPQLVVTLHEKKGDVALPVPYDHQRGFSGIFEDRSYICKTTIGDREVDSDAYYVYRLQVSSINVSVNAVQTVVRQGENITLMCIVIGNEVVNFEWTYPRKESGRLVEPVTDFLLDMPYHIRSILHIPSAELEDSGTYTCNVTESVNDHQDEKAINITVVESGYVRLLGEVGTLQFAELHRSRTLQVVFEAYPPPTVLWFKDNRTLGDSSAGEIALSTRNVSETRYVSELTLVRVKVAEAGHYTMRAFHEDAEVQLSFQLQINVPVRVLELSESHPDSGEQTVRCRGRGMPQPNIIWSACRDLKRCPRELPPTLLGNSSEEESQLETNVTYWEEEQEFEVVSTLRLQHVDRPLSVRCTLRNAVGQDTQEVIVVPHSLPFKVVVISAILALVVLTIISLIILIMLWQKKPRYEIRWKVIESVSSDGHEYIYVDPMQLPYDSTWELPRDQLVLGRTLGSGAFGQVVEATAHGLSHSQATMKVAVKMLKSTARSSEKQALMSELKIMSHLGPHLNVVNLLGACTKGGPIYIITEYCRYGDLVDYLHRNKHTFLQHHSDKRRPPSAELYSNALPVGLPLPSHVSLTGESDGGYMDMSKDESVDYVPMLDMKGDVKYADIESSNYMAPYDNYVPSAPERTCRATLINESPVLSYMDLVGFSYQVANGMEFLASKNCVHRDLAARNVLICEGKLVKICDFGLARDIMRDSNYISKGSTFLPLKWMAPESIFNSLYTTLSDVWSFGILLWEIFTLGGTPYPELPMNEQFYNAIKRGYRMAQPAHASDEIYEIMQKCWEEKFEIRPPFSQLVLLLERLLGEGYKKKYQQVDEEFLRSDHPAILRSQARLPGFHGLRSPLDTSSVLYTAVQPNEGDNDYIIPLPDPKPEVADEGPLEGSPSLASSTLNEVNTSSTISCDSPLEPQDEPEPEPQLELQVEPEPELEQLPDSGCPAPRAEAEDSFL
T2 sequence (P22607 23-806): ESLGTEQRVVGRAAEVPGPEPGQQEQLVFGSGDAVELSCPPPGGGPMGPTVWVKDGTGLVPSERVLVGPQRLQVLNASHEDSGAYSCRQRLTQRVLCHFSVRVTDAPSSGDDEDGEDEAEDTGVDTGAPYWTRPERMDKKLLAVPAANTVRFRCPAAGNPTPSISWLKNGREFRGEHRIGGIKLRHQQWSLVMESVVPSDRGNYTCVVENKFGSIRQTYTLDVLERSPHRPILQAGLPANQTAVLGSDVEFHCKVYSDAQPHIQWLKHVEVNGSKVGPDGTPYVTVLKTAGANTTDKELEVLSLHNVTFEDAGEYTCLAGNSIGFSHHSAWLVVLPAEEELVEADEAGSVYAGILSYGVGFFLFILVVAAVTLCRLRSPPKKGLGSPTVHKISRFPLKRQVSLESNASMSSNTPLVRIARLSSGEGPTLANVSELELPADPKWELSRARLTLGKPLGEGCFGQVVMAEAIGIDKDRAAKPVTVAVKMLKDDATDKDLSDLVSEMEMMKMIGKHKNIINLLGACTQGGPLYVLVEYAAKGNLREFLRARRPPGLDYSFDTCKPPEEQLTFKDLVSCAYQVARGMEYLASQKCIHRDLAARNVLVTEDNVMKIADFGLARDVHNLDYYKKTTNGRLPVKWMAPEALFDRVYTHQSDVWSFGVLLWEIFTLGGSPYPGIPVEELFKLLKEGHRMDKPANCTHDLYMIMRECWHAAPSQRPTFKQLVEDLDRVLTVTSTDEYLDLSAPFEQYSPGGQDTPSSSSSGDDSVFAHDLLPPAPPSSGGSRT
Chain of hERG potassium channel (Q12809 whole entry): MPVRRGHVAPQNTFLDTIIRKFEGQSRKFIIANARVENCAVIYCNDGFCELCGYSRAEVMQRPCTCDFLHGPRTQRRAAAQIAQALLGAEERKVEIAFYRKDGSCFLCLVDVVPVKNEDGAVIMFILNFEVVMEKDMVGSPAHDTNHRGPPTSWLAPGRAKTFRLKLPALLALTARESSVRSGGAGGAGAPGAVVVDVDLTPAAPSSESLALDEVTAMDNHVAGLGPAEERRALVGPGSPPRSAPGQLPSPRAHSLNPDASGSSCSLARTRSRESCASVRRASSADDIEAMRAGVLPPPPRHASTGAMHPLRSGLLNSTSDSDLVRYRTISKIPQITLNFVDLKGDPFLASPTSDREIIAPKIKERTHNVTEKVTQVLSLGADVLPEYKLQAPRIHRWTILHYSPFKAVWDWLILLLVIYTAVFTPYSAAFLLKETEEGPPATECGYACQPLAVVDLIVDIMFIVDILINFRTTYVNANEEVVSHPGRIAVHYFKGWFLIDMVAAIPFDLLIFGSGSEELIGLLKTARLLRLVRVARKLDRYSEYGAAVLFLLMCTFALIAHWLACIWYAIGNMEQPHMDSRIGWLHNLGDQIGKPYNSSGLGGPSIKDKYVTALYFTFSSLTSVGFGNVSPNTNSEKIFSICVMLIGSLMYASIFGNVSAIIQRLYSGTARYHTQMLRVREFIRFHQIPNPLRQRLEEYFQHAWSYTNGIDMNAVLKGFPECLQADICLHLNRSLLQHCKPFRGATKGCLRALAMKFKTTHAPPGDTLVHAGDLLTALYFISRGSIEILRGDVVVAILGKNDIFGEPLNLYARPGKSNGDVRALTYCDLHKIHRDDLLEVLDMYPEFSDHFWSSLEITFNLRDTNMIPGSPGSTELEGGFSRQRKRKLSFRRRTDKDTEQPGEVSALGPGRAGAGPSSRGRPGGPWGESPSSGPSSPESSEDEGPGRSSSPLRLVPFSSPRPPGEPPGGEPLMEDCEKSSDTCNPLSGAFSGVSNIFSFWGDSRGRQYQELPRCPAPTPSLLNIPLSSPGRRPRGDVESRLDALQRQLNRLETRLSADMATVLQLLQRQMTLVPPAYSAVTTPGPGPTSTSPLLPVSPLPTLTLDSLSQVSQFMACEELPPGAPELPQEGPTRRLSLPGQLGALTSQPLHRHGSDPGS
T3 sequence (P11362 22-822): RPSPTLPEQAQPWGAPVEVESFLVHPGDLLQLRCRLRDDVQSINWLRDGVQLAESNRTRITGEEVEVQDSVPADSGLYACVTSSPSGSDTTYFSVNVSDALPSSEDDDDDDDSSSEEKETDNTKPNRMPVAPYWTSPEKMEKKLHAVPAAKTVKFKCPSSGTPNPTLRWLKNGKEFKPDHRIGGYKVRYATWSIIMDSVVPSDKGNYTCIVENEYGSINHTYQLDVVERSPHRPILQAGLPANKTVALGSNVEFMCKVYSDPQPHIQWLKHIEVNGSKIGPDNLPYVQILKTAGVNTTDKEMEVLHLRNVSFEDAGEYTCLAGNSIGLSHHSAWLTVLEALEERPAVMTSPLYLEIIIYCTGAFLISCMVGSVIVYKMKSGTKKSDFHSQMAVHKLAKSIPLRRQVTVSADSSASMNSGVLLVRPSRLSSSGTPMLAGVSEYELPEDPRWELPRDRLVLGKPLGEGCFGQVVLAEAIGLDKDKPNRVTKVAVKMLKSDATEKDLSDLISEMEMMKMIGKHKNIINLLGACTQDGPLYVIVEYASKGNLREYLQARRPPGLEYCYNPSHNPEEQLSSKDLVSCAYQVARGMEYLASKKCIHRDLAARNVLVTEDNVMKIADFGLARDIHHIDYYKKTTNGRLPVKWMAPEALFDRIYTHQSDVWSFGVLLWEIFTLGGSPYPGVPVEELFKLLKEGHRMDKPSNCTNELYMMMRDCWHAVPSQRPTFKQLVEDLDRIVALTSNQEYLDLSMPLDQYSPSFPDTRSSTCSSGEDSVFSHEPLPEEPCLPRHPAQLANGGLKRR

Compound	EC50 [3] [nM]	IC50 [5] [nM]	also measured
COC(=O)c1ccc2c(c1)NC(=O)/C2=C(\Nc1ccc2c(c1)CCN2C(=O)CN(C)C)c1ccccc1 [Compound 2 hydrochloride, methyl(Z)-3-((1-(2-(dimethylamino)acetyl)indolin-5-ylamino)(phenyl)methylene)-2oxoindoline-6-carboxylate hydrochloride]			IC50 [1]: 15 nM; IC50 [2]: 280 nM
COC(=O)c1ccc2c(c1)NC(=O)/C2=C(\Nc1ccc2c(c1)CCN2C(=O)CN1CCN(C)CC1)c1ccc(F)cc1 [Compound 3]	180 to 260		EC50 [4]: 1300 to 1900 nM
CCOC(=O)c1ccc2c(c1)NC(=O)/C2=C(\Nc1ccc2c(c1)CCN2C(=O)CN1CCN(C)CC1)c1ccccc1 [Compound 4]	120 to 170		
COC(=O)c1ccc2c(c1)NC(=O)/C2=C(\Nc1ccc2c(c1)CCN2C(=O)CC1CCN(C)CC1)c1ccccc1 [Compound 5]	100 to 150		EC50 [4]: 820 to 1240 nM
COC(=O)c1ccc2c(c1)NC(=O)/C2=C(\Nc1ccc2c(c1)CCN2C(=O)CCC(=O)N(C)C)c1ccccc1 [Compound 6 hydrochloride]	190 to 280		
COC(=O)c1ccc2c(c1)NC(=O)/C2=C(\Nc1ccc2c(c1)CCN2C(=O)CN1CCOCC1)c1ccccc1 [Compound 7 hydrochloride]			EC50 [4]: 50 to 70 nM
COC(=O)c1ccc2c(c1)NC(=O)/C2=C(\Nc1ccc2c(c1)CCN2C(=O)CN1CCOCC1)c1ccccc1 [Compound 7]	70 to 100	> 30000	
COC(=O)c1ccc2c(c1)NC(=O)/C2=C(\Nc1ccc2c(c1)CCN2C(=O)CN1CCC(O)CC1)c1ccccc1 [Compound 8]	70 to 100		
COC(=O)c1ccc2c(c1)NC(=O)/C2=C(\Nc1ccc2c(c1)CCN2C(=O)CN1CCOCC1)c1ccc(F)cc1 [Compound 9, methyl(Z)-3-((4-fluorophenyl)(1-(2-morpholinylacetyl)indolin-5-ylamino)methylene)-2-oxoindoline-6-carboxylate]		> 30000	
CCOC(=O)c1ccc2c(c1)NC(=O)/C2=C(\Nc1ccc2c(c1)CCN2C(=O)CN1CCOCC1)c1ccccc1 [Compound 10, ethyl(Z)-3-((1-(2-morpholinylacetyl)indolin-5-ylamino)(phenyl)methylene)-2-oxoindoline-6-carboxylate]		> 30000	
COC(=O)c1ccc2c(c1)NC(=O)/C2=C(\Nc1ccc2c(c1)CCN2C(=O)CN1CC(C)OC(C)C1)c1ccccc1 (stereo not drawn) [Compound 11 hydrochloride, methyl(Z)-3-((1-(2-(2,6-dimethylmorpholine)acetyl)indolin-5-ylamino)(phenyl)methylene)-2-oxoindoline-6-carboxylate]	50 to 80		
COC(=O)c1ccc2c(c1)NC(=O)/C2=C(\Nc1ccc2c(c1)CCN2C(=O)CN1CC(C)OC(C)C1)c1ccccc1 (stereo not drawn) [Compound 11, methyl(Z)-3-((1-(2-(2,6-dimethylmorpholine)acetyl)indolin-5-ylamino)(phenyl)methylene)-2-oxoindoline-6-carboxylate]		> 30000	
COC(=O)c1ccc2c(c1)NC(=O)/C2=C(\Nc1ccc2c(c1)CCN2C(=O)CN1CCCC1=O)c1ccccc1 [Compound 12 hydrochloride, methyl(Z)-3-((1-(2-(2-pyrrolidon-1-yl)acetyl)indolin-5-ylamino)(phenyl)methylene)-2-oxoindoline-6-carboxylate]	20 to 30		IC50 [1]: 19 nM; IC50 [2]: 1720 nM
COC(=O)c1ccc2c(c1)NC(=O)/C2=C(\Nc1ccc2c(c1)CCN2C(=O)CN1CCCC1=O)c1ccccc1 [Compound 12, methyl(Z)-3-((1-(2-(2-pyrrolidon-1-yl)acetyl)indolin-5-ylamino)(phenyl)methylene)-2-oxoindoline-6-carboxylate]		> 30000	
COC(=O)c1ccc2c(c1)NC(=O)/C2=C(\Nc1ccc2c(c1)CCN2C(=O)Cn1cncn1)c1ccccc1 [Compound 13 hydrochloride, methyl(Z)-3-((1-(2-(1H-1,2,4-triazol-1-yl)acetyl)indolin-5-ylamino)(phenyl)methylene)-2-oxoindoline-6-carboxylate]	60 to 90		IC50 [1]: 14 nM; IC50 [6]: 700 nM; IC50 [2]: 540 nM
COC(=O)c1ccc2c(c1)NC(=O)/C2=C(\Nc1ccc2c(c1)CCN2C(=O)Cn1cncn1)c1ccccc1 [Compound 13, methyl(Z)-3-((1-(2-(1H-1,2,4-triazol-1-yl)acetyl)indolin-5-ylamino)(phenyl)methylene)-2-oxoindoline-6-carboxylate]		> 30000	
COC(=O)c1ccc2c(c1)NC(=O)/C2=C(\Nc1ccc2c(c1)CCN2C(=O)Cn1cccn1)c1ccccc1 [Compound 14 hydrochloride, methyl(Z)-3-((1-(2-(1H-pyrazol-1-yl)acetyl)indolin-5-ylamino)(phenyl)methylene)-2-oxoindoline-6-carboxylate]	70 to 100		IC50 [1]: 24 nM; IC50 [2]: 4020 nM
COC(=O)c1ccc2c(c1)NC(=O)/C2=C(\Nc1ccc2c(c1)CCN2C(=O)Cn1cccn1)c1ccccc1 [Compound 14, methyl(Z)-3-((1-(2-(1H-pyrazol-1-yl)acetyl)indolin-5-ylamino)(phenyl)methylene)-2-oxoindoline-6-carboxylate]		> 30000	
COC(=O)c1ccc2c(c1)NC(=O)/C2=C(\Nc1ccc(N(C)C(=O)CN2CCN(C)CC2)cc1)c1ccccc1 [Intedanib (BIBF-1120), Intedanib, reference compound]		4900	
